According to patent US20110217300A1, “Quinazolinone Compounds and Methods of Use Thereof” (priority 2007, published 2011):
Read-outs that look alike come from different tables or passages of the source.

What was measured:
HsEg5 = molecular target: T1, HsEg5 (Homo sapiens, UniProt P52732); assay: Fluorescence detection of HsEg5 ATPase activity (ADP Quest, automated); format: biochemical
T1 sequence (P52732 18-359 limits assumed): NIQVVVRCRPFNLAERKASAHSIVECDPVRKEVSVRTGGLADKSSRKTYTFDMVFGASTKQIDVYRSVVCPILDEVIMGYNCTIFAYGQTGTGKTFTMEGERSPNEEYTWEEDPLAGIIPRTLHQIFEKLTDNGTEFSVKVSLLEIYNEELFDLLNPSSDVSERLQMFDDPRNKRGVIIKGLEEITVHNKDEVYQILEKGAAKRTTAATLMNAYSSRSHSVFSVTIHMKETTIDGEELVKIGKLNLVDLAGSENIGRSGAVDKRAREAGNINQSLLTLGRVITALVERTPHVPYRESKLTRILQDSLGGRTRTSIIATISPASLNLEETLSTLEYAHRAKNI
Procedure: Purified HsEg5 motor fragment was activated by mixture with preformed MT polymer (Cytoskeleton, Denver, Colo.) at room temperature for 20 minutes. MT activated ATPase activity was measured using ADP Quest (DiscoverX, Fremont, Calif.) in which a coupled-enzyme assay can translate accumulation of ADP into detectable resorufin signal (FIG. 1A). Fluorescence was measured at λEx=535 nm and λEm=590 nm on a Wallac Victor 2 plate reader (Perkin-Elmer Life Sciences, Boston, Mass.). Reagent A and B from ADP Quest kit were aliquoted and frozen in −20° C. before use. A standard curve was determined using the provided ADP reagent in the reaction buffer that consisted of 50 mM Pipes (pH7.0), 5.0 mM MgCl2, 20 μM paclitaxel and […]. The same buffer was used for Km determination with HsEg5 concentration of 10 nM.
For inhibitor screening, 4 μL of compounds were incubated with 10 μL of MT-activated HsEg5 such that the final concentrations for compound range from 100 μM to 5 nM (1 to 3 serial dilutions, final concentration) and final concentration for HsEg5 is 10 nM. The mixture was incubated at room temperature for 10 minutes with mild shaking. The screening assay contained 0.3% DMSO in all reaction wells. We used wells containing only DMSO as negative controls and wells without ATP as background. Addition of 6 μL ATP (final concentration of 20 μM) initiated the ATP hydrolysis reaction. The 20 μL-reaction was allowed to proceed at room temperature for 10 minutes before addition of 10 μL of reagent A and 20 μL of reagent B. After 20-minute development at room temperature, the fluorescence was measured and data analysis was performed using GraphPad Prism version 3.0 (GraphPad Software, San Diego, Calif.)
For the purpose of high-throughput screening, we automated the fluorescence assay using a Sciclone ALH3000 (Caliper Life Sciences, Hopkinton, Mass.) and Multidrop 384 (Thermo Electron Corp, Waltham, Mass.). First, compound dilution plates for screening (at 10 μM or 1 μM) and ICso determination (10 data points from 100 μM to 5 nM) were made in Corning polypropylene V-bottom 96-well plates. In both cases, the 1st and 7th column contained background (No ATP addition) and negative control (DMSO only). For screening compounds at 10 μM or 1 μM, […] of each compound at 50 μM or 5 μM were used in a 20 μL assay reaction. For IC50 determination, the mother compound plate contained 24 μL of tested compound at stock concentration of 30 mM. 6 μL of each test compound in 30 mM was added to each well in the column 2 and followed by 1:3 serial dilutions in DMSO with the Sciclone ALH3000. 234 μL of assay buffer was then added using a Multidrop 384. Then 4 μL of diluted compounds was used in 20 μL-reaction. The final concentration was a 1:300 dilution of the original stock. Second, a reagent source plate was prepared with three rows designated to MT-activated HsEg5, Reagent A and Reagent B respectively. MTs were diluted with assay buffer and polymerized at room temperature for 10 minutes. Just before use, HsEg5 protein was thawed on ice and activated by addition of MT polymers at room temperature for 20 minutes. HsEg5/MT was then added to Row A of the reagent source plate. The final assay concentration was 10 nM HsEg5 and 500 nM MTs. Reagent A and B were stored at −20° C. and thawed at room temperature followed by transferring to rows B & C of the reagent source plate. Third, ATP substrate plate was prepared by transferring 80 μM ATP solution to each well of a V-shape 96-well plate except the wells in the first row where assay buffer was added instead to have no-ATP blanks. The final concentration for ATP in the assay was 20 μM.
The assay was programmed on Sciclone ALH3000 with the following procedures: 1) Addition of 4 μL compounds to the assay plate, followed by addition of 10 μL of MT-activated HsEg5. […]

NCI-H460 = assay: MTS cell viability assay; format: cell-based, human; details: Homo sapiens, NCI-H460, 72 h
Procedure: Cell viability was determined by measuring the activity of dehydrogenase enzymes in metabolically active cells using a tetrazolium compound, MTS. The assay was performed as described in Promega Technical Bulletin No. 169 (CellTiter 96 Aqueous Non-Radioactive Cell Proliferation Assay). Two human cancer cell lines were assayed (see, Table 1). Cells were maintained at 37° C. and 5% CO2 in DMEM media (4.5 g/L glucose) supplemented with 10% heat-inactivated FBS, 10 mM L-glutamine, and 10 mM Hepes pH 7.5. Briefly, cells were seeded in 96-well plates as set forth in Table 1 and incubated for 16-24 hours. Candidate compounds were serially diluted in DMSO, further diluted in cell culture media, and then added to cells (final DMSO concentration of 0.33%). Cells were incubated in the presence of candidate compound for 72 hours. MTS stock solution (MTS 2 gm/L, PMS […] in PBS) was added to the cells (final concentration MTS […] and PMS 7.67 mg/L) and incubated for 4 hours. SDS was added to a final concentration of 1.4% and absorbance at 490 nm was measured within two hours using a plate reader. […] GI50 values were given in Table 2 for the compounds listed. The Compound Numbers in Table 2 correspond to the numbers listed parenthetically in the Example titles. Where multiple measurements were made by different technicians, both values are given.
Cell viability was determined for N-(3-amino-propyl)-3-chloro-N—[(R)-1-(7-chloro-4-oxo-3-phenylamino-3,4-dihydro-quinazolin-2-yl)-but-3-ynyl]-2-fluoro-benzamide (compound I of Table 2). The cell viability assay of Example 105 was used. GI50 was determined using a variety of cell lines. Cells were plated at 100-5000 cells per well. At least 2 replicates were performed. Where multiple measurements were made by different technicians, both values are given.

A549 = assay: MTS cell viability assay; format: cell-based; details: Homo sapiens, A549 non small cell lung, 72 hours, read-out: MTS NCI A549 GI50
Procedure: Two human cancer cell lines were assayed (see, Table 1). Cells were maintained at 37° C. and 5% CO2 in DMEM media (4.5 g/L glucose) supplemented with 10% heat-inactivated FBS, 10 mM L-glutamine, and 10 mM Hepes pH 7.5. Briefly, cells were seeded in 96-well plates as set forth in Table 1 and incubated for 16-24 hours. Candidate compounds were serially diluted in DMSO, further diluted in cell culture media, and then added to cells (final DMSO concentration of 0.33%). Cells were incubated in the presence of candidate compound for 72 hours. […] The Compound Numbers in Table 2 correspond to the numbers listed parenthetically in the Example titles.

[1] = read-out: MTS NCI H460 GI50, NCI-H460 non small cell lung, 72 hours

Which results are given for CCC(c1nc2cc(Cl)ccc2c(=O)n1Nc1ccccc1)N(CCCN)C(=O)c1ccc(Br)cc1 (stereo not shown) [Compound 2, N-(3-Aminopropyl)-N-[1-(3-anilino-7-chloro-4-oxo-3,4-dihydroquinazolin-2-yl)propyl]-4-bromobenzamide]?
IC50 (HsEg5): 0.645 µM; GI50 (NCI-H460; read-out: MTS NCI H460 GI50): 1.75 µM; GI50 (A549): 2.37 µM

With CCC(c1nc2cc(Cl)ccc2c(=O)n1Nc1ccccc1)N(CCCN)C(=O)c1ccc(C)cc1 (stereo not shown) [Compound 3, N-(3-Aminopropyl)-N-[1-(3-anilino-7-chloro-4-oxo-3,4-dihydroquinazolin-2-yl)propyl]-4-methylbenzamide] as the compound, how does the IC50 (HsEg5) read?
The IC50 was 0.702 µM.

What about the GI50 (NCI-H460; [1]) of the same compound?
Its GI50 is 1.19 µM.

And the GI50 (A549; A549, 72 h)?
Its GI50 is 2.3 µM.

Which results are given for CCC(c1nc2cc(Cl)ccc2c(=O)n1Nc1ccccc1)N(CCCN)C(=O)c1ccc(Cl)cc1 (stereo not shown) [Compound 4, N-(3-Aminopropyl)-N-[1-(3-anilino-7-chloro-4-oxo-3,4-dihydroquinazolin-2-yl)propyl]-4-chlorobenzamide]?
IC50 (HsEg5): 0.72 µM; GI50 (NCI-H460; read-out: MTS NCI H460 GI50): 1.14 µM; GI50 (A549): 2.4 µM

Which IC50 (HsEg5) does the source give for CCC(c1nc2cc(Cl)ccc2c(=O)n1Nc1ccccc1)N(CCCN)C(=O)c1ccc([N+](=O)[O-])cc1 (stereo not shown) [Compound 5, N-(3-Aminopropyl)-N-[1-(3-anilino-7-chloro-4-oxo-3,4-dihydroquinazolin-2-yl)propyl]-4-nitrobenzamide] here?
The IC50 was 1.05 µM.

And the GI50 (NCI-H460; read-out: MTS NCI H460 GI50)?
Its GI50 is 2.39 µM.

What about the GI50 (A549) of the same compound?
Its GI50 is 4.4 µM.

For C#CC[C@H](c1nc2cc(Cl)ccc2c(=O)n1Nc1ccccc1)N(CCCN)S(=O)(=O)c1ccc(C)cc1 [Compound 30, N-(3-amino-propyl)-N—[(R)-1-(7-chloro-4-oxo-3-phenylamino-3,4-dihydro-quinazolin-2-yl)-but-3-ynyl]-4-methyl-benzenesulfonamide], which GI50 (NCI-H460; [1]) is on record?
The GI50 was 12 µM.

And the GI50 (A549; A549, 72 h)?
The GI50 was 7.1 µM.

CC[C@H](c1nc2cc(Cl)ccc2c(=O)n1Nc1ccccc1)N(CCCN)S(=O)(=O)c1cccc(F)c1 [Compound 31, N-(3-Aminopropyl)-N-[(1R)-1-(3-anilino-7-chloro-4-oxo-3,4-dihydroquinazolin-2-yl)propyl]-3-fluorobenzenesulfonamide] was tested. Which IC50 (HsEg5) did it give?
The IC50 was 1.43 µM.

And the GI50 (A549)?
The GI50 was 10.8 µM.

CC[C@H](c1nc2cc(Cl)ccc2c(=O)n1Nc1ccccc1)N(CCCN)S(=O)(=O)c1c(C)nn(C)c1C [Compound 33, N-(3-Aminopropyl)-N-[(1R)-1-(3-anilino-7-chloro-4-oxo-3,4-dihydroquinazolin-2-yl)propyl]-1,3,5-trimethyl-1H-pyrazole-4-sulfonamide] was tested. Which IC50 (HsEg5) did it give?
The IC50 was 4.22 µM.

What about the GI50 (NCI-H460; read-out: MTS NCI H460 GI50) of the same compound?
Its GI50 is 10.4 µM.

With CSCCC(c1nc2cc(Cl)ccc2c(=O)n1Nc1ccccc1)N(CCCN)C(=O)c1cccc(Cl)c1F (stereo not shown) [Compound 38, N-(3-Aminopropyl)-N-[1-(3-anilino-7-chloro-4-oxo-3,4-dihydroquinazolin-2-yl)-3-(methylthio)propyl]-3-chloro-2-fluorobenzamide] as the compound, how does the IC50 (HsEg5) read?
The IC50 was 4.59 µM.

What about the GI50 (NCI-H460; [1]) of the same compound?
The GI50 was 3.59 µM.

Which IC50 (HsEg5) does the source give for Cc1ccc(C(=O)N(CCCN)C(c2nc3cc(Cl)ccc3c(=O)n2Nc2ccccc2)C(C)C)cc1F (stereo not shown) [Compound 46, N-(3-Aminopropyl)-N-[1-(3-anilino-7-chloro-4-oxo-3,4-dihydroquinazolin-2-yl)-2-methylpropyl]-3-fluoro-4-methylbenzamide] here?
Its IC50 is 0.246 µM.

What about the GI50 (NCI-H460; [1]) of the same compound?
Its GI50 is 0.678 µM.

CCCCC(c1nc2cc(Cl)ccc2c(=O)n1Nc1ccccc1)N(CCCN)C(=O)c1ccc(C)cc1 (stereo not shown) [Compound 59, N-(3-Aminopropyl)-N-[1-(3-anilino-7-chloro-4-oxo-3,4-dihydroquinazolin-2-yl)pentyl]-4-methylbenzamide] was tested. Which IC50 (HsEg5) did it give?
The IC50 was 52.3 µM.

And the GI50 (NCI-H460; read-out: MTS NCI H460 GI50)?
The GI50 was 4.24 µM.

Which IC50 (HsEg5) does the source give for CCC(c1nc2cc(Cl)ccc2c(=O)n1Nc1ccccc1)N(CCN)C(=O)c1ccc(Cl)cc1 (stereo not shown) [Compound 60, N-(2-Aminoethyl)-N-[1-(3-anilino-7-chloro-4-oxo-3,4-dihydroquinazolin-2-yl)propyl]-4-chlorobenzamide] here?
Its IC50 is 3.99 µM.

And the GI50 (NCI-H460; read-out: MTS NCI H460 GI50)?
Its GI50 is 10 µM.

For C#CC[C@H](c1nc2cc(Cl)ccc2c(=O)n1Nc1ccccc1)N(CCCN)Cc1ccc(C)cc1 [Compound 66, 2-{(R)-1-[(3-Amino-propyl)-(4-methyl-benzyl)-amino]-but-3-ynyl}-7-chloro-3-phenylamino-3H-quinazolin-4-one], which GI50 (NCI-H460; [1]) is on record?
Its GI50 is 3.2 µM.

And the GI50 (A549; A549, 72 h)?
The GI50 was 2.35 µM.

For CC[C@H](c1nc2cc(Cl)ccc2c(=O)n1Nc1ccccc1)N(CCCN)Cc1ccc(C)cc1 [Compound 68, 2-{(R)-1-[(3-Amino-propyl)-(4-methyl-benzyl)-amino]-propyl}-7-chloro-3-phenylamino-3H-quinazolin-4-one], which GI50 (NCI-H460; [1]) is on record?
The GI50 was 2.59 µM.

And the GI50 (A549; A549, 72 h)?
The GI50 was 3.86 µM.

For CC[C@H](c1nc2cc(Cl)ccc2c(=O)n1Nc1ccccc1)N(CCCN)Cc1ccc(F)c(C)c1 [Compound 69, 2-{(1R)-1-[(3-Aminopropyl)(4-fluoro-3-methylbenzyl)amino]propyl}-3-anilino-7-chloro-3H-quinazolin-4-one], which GI50 (NCI-H460; [1]) is on record?
The GI50 was 3.77 µM.

And the GI50 (A549; A549, 72 h)?
Its GI50 is 3.9 µM.

How did the GI50 (NCI-H460; [1]) turn out when CC[C@H](c1nc2cc(Cl)ccc2c(=O)n1Nc1ccccc1)N(CCCN)Cc1ccccc1 [Compound 70, 2-{(1R)-1-[(3-aminopropyl)(benzyl)amino]propyl}-3-anilino-7-chloro-3H-quinazolin-4-one] was run?
Its GI50 is 4.23 µM.

And the GI50 (A549; A549, 72 h)?
The GI50 was 6.91 µM.
